Measurements reported in ChEMBL document CHEMBL3875145, “Highly potent anti-leishmanial derivatives of hederagenin, a triperpenoid from Sapindus saponaria L” (Eur J Med Chem, 2016).

Key:
[1] = Cytotoxicity against African green monkey BGM cells assessed as decrease in cell viability after 48 hrs by MTT assay; assay type: toxicity, cell-based; conditions: chlorocebus aethiops, read-out: LD50
[2] = Cytotoxicity against human HepG2 cells assessed as decrease in cell viability after 48 hrs by MTT assay; assay type: toxicity, cell-based; conditions: read-out: LD50
[3] = Selectivity index, ratio of LD50 for African green monkey BGM cells to IC50 for Leishmania infantum MHOM/BR/70/BH46 promastigotes infected in dog DH82 cells; assay type: toxicity, cell-based; conditions: read-out: Ratio LD50/IC50
Leishmania infantum [4] = assay: Antiparasitic activity against Leishmania infantum MHOM/BR/70/BH46 promastigotes infected in dog DH82 cells at 1000 uM after 48 hrs by ELISA method; assay type: functional; conditions: MHOM/BR/70/BH46, DH82, 48 h
Leishmania infantum [5] = assay: Antiparasitic activity against Leishmania infantum MHOM/BR/70/BH46 promastigotes infected in dog DH82 cells after 48 hrs by ELISA method; assay type: functional, cell-based; conditions: MHOM/BR/70/BH46, DH82, 48 h
[6] = Selectivity index, ratio of LD50 for human HepG2 cells to IC50 for Leishmania infantum MHOM/BR/70/BH46 promastigotes infected in dog DH82 cells; assay type: toxicity, cell-based; conditions: read-out: Ratio LD50/IC50
[7] = Cytotoxicity against dog DH82 cells assessed as decrease in cell viability after 48 hrs by MTT assay; assay type: toxicity, cell-based, Canis lupus familiaris; conditions: read-out: LD50
[8] = Selectivity index, ratio of LD50 for dog DH82 cells to IC50 for Leishmania infantum MHOM/BR/70/BH46 promastigotes infected in dog DH82 cells; assay type: toxicity, cell-based; conditions: read-out: Ratio LD50/IC50

| Compound | CC50 at 48 h [1] | CC50 at 48 h [2] | selectivity ratio [3] | inhibition at 1000 µM (Leishmania infantum [4]) | IC50 (Leishmania infantum [5]) | selectivity ratio [6] | CC50 at 48 h [7] | selectivity ratio [8] |
| --- | --- | --- | --- | --- | --- | --- | --- | --- |
| CC1(C)CC[C@]2(C(=O)OCc3cn(Cc4ccccc4[N+](=O)[O-])nn3)CC[C@]3(C)C(=CC[C@@H]4[C@@]5(C)CC[C@H](O)[C@@](C)(CO)[C@@H]5CC[C@]43C)[C@@H]2C1 | 15 µM | 57 µM | 1.3 | 51% | 32 µM | 5.1 | 212 µM | 6.6 |
| CC1(C)CC[C@]2(C(=O)O)CC[C@]3(C)C(=CC[C@@H]4[C@@]5(C)CC[C@H](O)[C@@](C)(CO)[C@@H]5CC[C@]43C)[C@@H]2C1 [HEDERAGENIN] | 57 µM | < 1000 µM | 0.9 | 55.5% | 61.6 µM | 16.2 | < 1000 µM | 10 |
| CC1(C)CC[C@]2(C(=O)OCc3cn(Cc4ccc(F)cc4F)nn3)CC[C@]3(C)C(=CC[C@@H]4[C@@]5(C)CC[C@H](O)[C@@](C)(CO)[C@@H]5CC[C@]43C)[C@@H]2C1 | 158 µM | > 1000 µM | 4.9 | 87.7% | 11 µM | > 31.2 | 66 µM | 6 |
| CC1(C)CC[C@]2(C(=O)NCc3cn(Cc4ccccc4[N+](=O)[O-])nn3)CC[C@]3(C)C(=CC[C@@H]4[C@@]5(C)CC[C@H](O)[C@@](C)(CO)[C@@H]5CC[C@]43C)[C@@H]2C1 | 111 µM | > 1000 µM | 55.5 | 93% | 2 µM | > 500 | 45 µM | 22.5 |
| COc1cc(COC(=O)[C@]23CCC(C)(C)C[C@H]2C2=CC[C@@H]4[C@@]5(C)CC[C@H](O)[C@@](C)(CO)[C@@H]5CC[C@@]4(C)[C@]2(C)CC3)cc(OC)c1 | – | – | – | 89% | 110 µM | – | – | – |
| COC(=O)CNC(=O)[C@]12CCC(C)(C)C[C@H]1C1=CC[C@@H]3[C@@]4(C)CC[C@H](O)[C@@](C)(CO)[C@@H]4CC[C@@]3(C)[C@]1(C)CC2 | 20 µM | 60.6 µM | 1 | 79.5% | 18 µM | 3.5 | 32.5 µM | 1.8 |
| CC1(C)CC[C@]2(C(=O)OCc3ccc(Br)cc3)CC[C@]3(C)C(=CC[C@@H]4[C@@]5(C)CC[C@H](O)[C@@](C)(CO)[C@@H]5CC[C@]43C)[C@@H]2C1 | 116 µM | 260 µM | 10 | 64.5% | 12 µM | 21.6 | 83 µM | 6.9 |
| CC1(C)CC[C@]2(C(=O)NCc3cn(Cc4ccc(Cl)cc4)nn3)CC[C@]3(C)C(=CC[C@@H]4[C@@]5(C)CC[C@H](O)[C@@](C)(CO)[C@@H]5CC[C@]43C)[C@@H]2C1 | 50 µM | 2.5 µM | 8.3 | 85.4% | 6 µM | 0.4 | 16 µM | 2.6 |
| CC1(C)CC[C@]2(C(=O)OCc3cn(Cc4cccc(Br)c4)nn3)CC[C@]3(C)C(=CC[C@@H]4[C@@]5(C)CC[C@H](O)[C@@](C)(CO)[C@@H]5CC[C@]43C)[C@@H]2C1 | 78 µM | 19 µM | 2 | 70.5% | 38 µM | 0.5 | 21 µM | 0.5 |
| CC1(C)CC[C@]2(C(=O)OCc3cccc([N+](=O)[O-])c3)CC[C@]3(C)C(=CC[C@@H]4[C@@]5(C)CC[C@H](O)[C@@](C)(CO)[C@@H]5CC[C@]43C)[C@@H]2C1 | 314 µM | 70 µM | 32 | 60.5% | 9.7 µM | 5.2 | 63 µM | 6.4 |
| C#CCOC(=O)[C@]12CCC(C)(C)C[C@H]1C1=CC[C@@H]3[C@@]4(C)CC[C@H](O)[C@@](C)(CO)[C@@H]4CC[C@@]3(C)[C@]1(C)CC2 | – | – | – | 19% | – | – | – | – |
| CC1(C)CC[C@]2(C(=O)OCc3cn(Cc4ccccc4)nn3)CC[C@]3(C)C(=CC[C@@H]4[C@@]5(C)CC[C@H](O)[C@@](C)(CO)[C@@H]5CC[C@]43C)[C@@H]2C1 | – | – | – | 23.5% | – | – | – | – |
| CC1(C)CC[C@]2(C(=O)OCc3c(Cl)cccc3Cl)CC[C@]3(C)C(=CC[C@@H]4[C@@]5(C)CC[C@H](O)[C@@](C)(CO)[C@@H]5CC[C@]43C)[C@@H]2C1 | – | – | – | 53% | 307 µM | – | 202 µM | 0.6 |
